One compound from patent US8039501B2, “Synephrine derivatives useful as anti-inflammatory agents” (Universiteit Gent, priority 2005, dated 2011) can be followed below.

The subject of one experiment is L363 cell line. The experiment can be described thus: MTT test, cell viability of L363 cells. Format: cell-based, human. The note with it: Homo sapiens, L-363; 10^−4 M; 10% FCS; FIG. 3B; read-out: Block of L363 cell viability. As to the method:
The MTT test is a standard assay addressing cell toxicity of a compound. It is based on the principle that after 3-4 hours of cell incubation with MTT (3-(4,5-dimethylthiazole-2-yl)-2,5-diphenyl tetrazolium bromide) so-called purple formazan crystals develop in living and early apoptotic cells. Dead cells don't produce formazan crystals.
Different cell lines were tested. Unless indicated differently, A549 human lung epithelial cells (derived from lung carcinoma) and L929sA murine fibroblast cells were cultured in DMEM with 10% FCS, 100 U/ml penicillin and 100 μg/ml streptomycin. Unless indicated differently, the human multiple myeloma cell lines L363, U266 and MM1.S were cultured in RPMI 1640 with Glutamax-I, supplemented with 10% FCS, 100 U/ml penicillin and 100 μg/ml streptomycin. Cells were seeded at 5000 cells/well (for adherent A549 and L929sA cells) or at 10000 cells/well (for the multiple myeloma lines in suspension) in 96 well plates. Cells were incubated in the presence of the respective synephrine compounds or vehicle (EtOH; for control test) in a final volume of 0.2 ml for 24 or 48 hours at 37° C. Subsequently, 20 μl of MTT solution (5 mg/ml in phosphate-buffered saline) was added to each well. After 4 hours incubation at 37° C., 80 μl of the extraction buffer (10% SDS, 0.01 M HCl) was added. After overnight incubation at room temperature, the optical densities at 590 nm were measured. Results are illustrated in FIGS. 2 to 6 and are expressed as percentage of viable cells as compared to vehicle-treated controls.
The MTT test was further extended to include alternative synephrine derivatives and a range of multiple myeloma cell lines for which the results are illustrated by FIGS. 3A, 3B and 4A. Human multiple myeloma cell lines L363, U266 and MM1.S were cultured in RPMI 1640 with Glutamax-I, supplemented with 10% FCS, 100 U/ml penicillin and 100 μg/ml streptomycin. Cells were seeded at 10000 cells/well in 96 well plates. Cells were incubated in the presence of test compounds or vehicle in a final volume of 0.2 ml for 24 or 48 hours at 37° C. The test compounds included in the test were the synephrine derivatives CpdA, Naphth, Benz and Isobut, and DEX as a comparative example. Subsequently, 20 μl of MTT solution (5 mg/ml in phosphate-buffered saline) was added to each well. After 4 hours incubation at 37° C., 80 μl of the extraction buffer (10% SDS, 0.01 M HCl) was added. After 48 hours incubation at room temperature, the optical densities at 590 nm were measured. Results are expressed as percentage of viable cells as compared to vehicle-treated controls.
For orientation: Tetrazolium dyes change colour on reduction, which living cells bring about.

A further experiment has as its system MCF7 breast cancer cells. As to the kind of experiment: Human Cancer Pathway Finder GEarray hybridization, MCF7 cells. Format: cell-based. The conditions noted are these: 10^−5 M. As to the method:
mRNA of MCF7 breast cancer cells left untreated or treated with CpdA was analyzed for variation in gene expression by means of RNase protection analysis and nylon arrayfilter hybridization (SuperArray filters i.e. cancer pathway finder and stress and toxicity pathway array). From these experiments it can be derived that the synephrine analogues show a unique gene expression profile with respect to target genes involved in apoptosis, cell cycle, metastasis, angiogenesis, stress responses, and the like. At the same time, the synephrine analogue-induced gene expression prophile is distinct from the gene expression response observed with classical glucorticoids.
For the total RNA extraction, 10^5 cell were homogenized in 1 ml of TRIzol Reagent (GIBCO BRL), incubated 5 minutes at room temperature; then added 200 μl chloroform, vortexed 15 seconds. Mix was incubated on ice for 5 minutes. Phase separation was done by centrifugation at 12000 rpm for 15 minutes at 4° C. […]
Membranes were washed twice with 5 ml of pre-warmed wash solution 2×SSC, 1% SDS for 10 minutes at 68° C. with agitation at 30-40 rpm/minute. […] Visualization and quantitation of radioactive bands was carried out by a Phosphorlmager and scanned using a bioimaging analyzer (Personal Molecular Imager® FX Bio-Rad). Densitometry analysis of autoradiograms was performed using Quantity One (Bio-Rad). […]

With `CNCC(Cl)c1ccc(OC(C)=O)cc1.Cl` (centres unmarked) [CpdA, 2-(4-acetoxyphenyl)-2-chloro-N-methyl-ethylammonium chloride], the cytotoxicity at 100 µM with L363 cell line stood at 50%. In addition, the “Expression of cancer target genes TP53, TNFRSF12, MAP2K1, RAF, ITGA6, NCAM, PDGF, MMP9, MTA1, TIMP1” value with MCF7 breast cancer cells is “represses”.
